Source: US10577368B2 (The United States of America, as represented by the …, priority 2013, dated 2020)

Key:
% Unbound in plasma, rat = assay type: in vitro ADME
hM4 muscarinic receptor = hM4 muscarinic receptor (Homo sapiens (Human), UniProt P08173); test: Off-target binding, M4
h5HT2B = h5HT2B (Homo sapiens (Human), UniProt P41595); test: Off-target binding, 5HT2B; conditions: read-out: Ki at 5HT2B
hM1 muscarinic receptor = hM1 muscarinic receptor (Homo sapiens (Human), UniProt P11229); test: Off-target binding, M1
Description: (§1) The results are set forth below.

hA3AR = hA3AR (Homo sapiens (Human), UniProt P0DMS8); test: Radioligand binding at hA3AR, CHO cell membranes, [125I]I-AB-MECA
Chain of hA3AR (P0DMS8 whole entry): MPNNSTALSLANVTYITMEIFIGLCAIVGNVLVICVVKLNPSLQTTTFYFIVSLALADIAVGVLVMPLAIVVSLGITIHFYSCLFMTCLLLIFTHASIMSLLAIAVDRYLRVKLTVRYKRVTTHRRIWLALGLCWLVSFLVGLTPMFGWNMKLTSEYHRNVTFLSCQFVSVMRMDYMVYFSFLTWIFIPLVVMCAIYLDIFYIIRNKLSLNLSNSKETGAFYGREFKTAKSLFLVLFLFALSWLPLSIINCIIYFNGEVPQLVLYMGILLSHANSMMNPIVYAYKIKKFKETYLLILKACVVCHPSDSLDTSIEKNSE

5HT2A = test: Off-target binding, 5HT2A
mA3AR = mA3AR (Mus musculus (Mouse), UniProt Q61618); test: Competition binding at mA3AR, HEK293 cell membranes
Chain of mA3AR (Q61618 whole entry): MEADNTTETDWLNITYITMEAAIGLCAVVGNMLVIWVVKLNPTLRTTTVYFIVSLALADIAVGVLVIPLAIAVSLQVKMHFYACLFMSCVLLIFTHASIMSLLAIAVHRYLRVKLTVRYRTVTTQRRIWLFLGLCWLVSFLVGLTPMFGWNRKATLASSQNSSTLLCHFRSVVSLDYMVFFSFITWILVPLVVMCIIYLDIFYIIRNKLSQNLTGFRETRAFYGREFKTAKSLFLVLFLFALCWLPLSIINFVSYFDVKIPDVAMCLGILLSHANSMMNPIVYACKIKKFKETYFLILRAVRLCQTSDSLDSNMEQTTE

[1] = system: muscarinic, adrenergic, dopamine, GABA, histamine, opiate, serotonin receptors and transporters; test: Off-target binding panel (receptors and transporters of Table 5)
Description: as §1

[2] = Stability in liver microsomes, human; assay type: in vitro ADME
[3] = Stability in liver microsomes, mouse; assay type: in vitro ADME
hH1 histamine receptor = hH1 histamine receptor (Homo sapiens (Human), UniProt P35367); test: Off-target binding, H1
mA1AR = mA1AR (Mus musculus (Mouse), UniProt Q60612); test: Competition binding at mA1AR, HEK293 cell membranes; conditions: mouse (m); inhibition of binding at 10 μM
[4] = Stability in simulated fluids (gastric, intestinal); assay type: in vitro ADME
Description: (§2) In vitro stability parameters for selected compounds are set forth in Table 6, in accordance with an embodiment of the invention.

[5] = % Unbound in plasma, human; assay type: in vitro ADME
CYP 3A4 = CYP 3A4 (Homo sapiens (Human), UniProt P08684); test: CYP inhibition, 3A4; assay type: in vitro ADME
Chain of CYP 3A4 (P08684 whole entry): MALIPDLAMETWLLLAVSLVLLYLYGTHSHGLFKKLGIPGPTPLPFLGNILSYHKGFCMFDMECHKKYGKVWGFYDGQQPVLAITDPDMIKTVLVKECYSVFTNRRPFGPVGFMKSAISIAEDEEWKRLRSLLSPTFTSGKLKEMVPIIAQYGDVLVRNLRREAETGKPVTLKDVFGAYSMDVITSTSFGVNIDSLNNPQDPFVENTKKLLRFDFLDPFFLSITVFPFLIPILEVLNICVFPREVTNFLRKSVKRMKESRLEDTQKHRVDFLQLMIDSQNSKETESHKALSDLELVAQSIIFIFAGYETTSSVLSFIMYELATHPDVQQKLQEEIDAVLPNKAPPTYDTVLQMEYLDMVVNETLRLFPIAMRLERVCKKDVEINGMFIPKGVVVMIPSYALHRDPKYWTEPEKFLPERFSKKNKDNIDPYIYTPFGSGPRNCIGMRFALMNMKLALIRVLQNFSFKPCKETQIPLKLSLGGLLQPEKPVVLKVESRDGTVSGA
Description: as §2

hA1AR = hA1AR (Homo sapiens (Human), UniProt P30542); test: Radioligand binding at hA1AR, CHO cell membranes, [3H]R-PIA; conditions: inhibition of binding at 10 μM
Chain of hA1AR (P30542 whole entry): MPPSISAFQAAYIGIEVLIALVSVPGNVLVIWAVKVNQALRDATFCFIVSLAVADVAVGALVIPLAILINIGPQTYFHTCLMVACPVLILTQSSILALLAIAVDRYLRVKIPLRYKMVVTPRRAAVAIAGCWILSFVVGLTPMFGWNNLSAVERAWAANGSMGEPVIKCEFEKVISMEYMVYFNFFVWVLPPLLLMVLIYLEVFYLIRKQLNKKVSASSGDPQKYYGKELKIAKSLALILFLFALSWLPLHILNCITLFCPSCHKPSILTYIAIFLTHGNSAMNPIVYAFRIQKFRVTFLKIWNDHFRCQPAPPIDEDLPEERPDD

[6] = % Unbound in plasma, mouse; assay type: in vitro ADME
hM3 muscarinic receptor = hM3 muscarinic receptor (Homo sapiens (Human), UniProt P20309); test: Off-target binding, M3
Chain of hM3 muscarinic receptor (P20309 whole entry, looked up): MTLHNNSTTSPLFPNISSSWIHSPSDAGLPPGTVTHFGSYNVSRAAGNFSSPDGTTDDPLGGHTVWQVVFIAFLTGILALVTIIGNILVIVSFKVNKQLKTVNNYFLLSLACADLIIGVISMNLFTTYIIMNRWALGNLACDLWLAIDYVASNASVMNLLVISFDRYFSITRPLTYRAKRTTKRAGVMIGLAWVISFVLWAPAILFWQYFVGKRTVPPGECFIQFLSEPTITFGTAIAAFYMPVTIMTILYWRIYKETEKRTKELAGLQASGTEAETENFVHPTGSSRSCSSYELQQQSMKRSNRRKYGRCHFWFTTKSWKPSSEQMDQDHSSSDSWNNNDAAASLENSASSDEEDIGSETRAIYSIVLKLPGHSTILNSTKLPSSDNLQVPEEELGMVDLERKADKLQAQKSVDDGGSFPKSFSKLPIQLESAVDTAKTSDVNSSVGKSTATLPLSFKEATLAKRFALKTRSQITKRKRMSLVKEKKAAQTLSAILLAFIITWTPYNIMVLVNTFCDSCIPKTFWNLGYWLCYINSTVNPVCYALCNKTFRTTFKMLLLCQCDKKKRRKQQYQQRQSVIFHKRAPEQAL

[7] = system: 5 CYP isozymes (1A2, 2C9, 2C19, 2D6, 3A4); test: Inhibition of 5 CYP isozymes; assay type: in vitro ADME; conditions: read-out: Inhibition of 5 CYP isozymes: IC50
h5HT7 = h5HT7 (Homo sapiens (Human), UniProt P34969); test: Off-target binding, 5HT7
h5HT6 = h5HT6 (Homo sapiens (Human), UniProt P50406); test: Off-target binding, 5HT6
Chain of h5HT6 (P50406 whole entry): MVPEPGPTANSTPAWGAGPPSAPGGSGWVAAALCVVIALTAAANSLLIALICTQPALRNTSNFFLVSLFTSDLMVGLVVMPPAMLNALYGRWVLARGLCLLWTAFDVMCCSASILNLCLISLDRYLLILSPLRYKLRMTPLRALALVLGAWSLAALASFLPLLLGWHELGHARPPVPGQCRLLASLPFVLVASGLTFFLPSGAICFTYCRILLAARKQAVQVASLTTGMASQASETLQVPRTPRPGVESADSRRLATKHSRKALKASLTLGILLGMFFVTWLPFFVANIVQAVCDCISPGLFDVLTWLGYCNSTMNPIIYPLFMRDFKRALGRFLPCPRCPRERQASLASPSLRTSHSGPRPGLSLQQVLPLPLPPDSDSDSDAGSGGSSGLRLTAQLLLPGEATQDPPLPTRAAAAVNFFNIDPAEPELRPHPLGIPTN

mA2AAR = mA2AAR (Mus musculus (Mouse), UniProt Q60613); test: Competition binding at mA2AAR, HEK293 cell membranes; conditions: mouse (m); inhibition of binding at 10 μM
Chain of mA2AAR (Q60613 whole entry): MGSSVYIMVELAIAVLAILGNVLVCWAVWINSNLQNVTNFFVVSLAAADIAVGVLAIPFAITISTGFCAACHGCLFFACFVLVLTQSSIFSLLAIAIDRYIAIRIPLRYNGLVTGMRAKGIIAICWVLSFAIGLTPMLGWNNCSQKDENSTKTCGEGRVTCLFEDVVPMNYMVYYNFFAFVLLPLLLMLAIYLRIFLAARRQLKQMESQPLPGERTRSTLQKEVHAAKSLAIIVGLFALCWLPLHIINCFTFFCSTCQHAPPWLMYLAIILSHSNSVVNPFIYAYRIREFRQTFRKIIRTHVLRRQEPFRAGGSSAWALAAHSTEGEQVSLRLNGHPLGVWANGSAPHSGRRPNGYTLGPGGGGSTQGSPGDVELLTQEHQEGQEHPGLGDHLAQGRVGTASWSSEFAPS

[8] = system: chronic constriction injury model of neuropathic pain; test: CCI model of neuropathic pain, reversal of mechano-allodynia; assay type: in vivo, mice
[9] = Stability in liver microsomes, rat; assay type: in vitro ADME
[10] = target: Alpha 2C adrenergic receptor (Homo sapiens (Human), UniProt P18825); test: Off-target binding, α2C; conditions: read-out: Ki at α2C
Chain of Alpha 2C adrenergic receptor (P18825 whole entry): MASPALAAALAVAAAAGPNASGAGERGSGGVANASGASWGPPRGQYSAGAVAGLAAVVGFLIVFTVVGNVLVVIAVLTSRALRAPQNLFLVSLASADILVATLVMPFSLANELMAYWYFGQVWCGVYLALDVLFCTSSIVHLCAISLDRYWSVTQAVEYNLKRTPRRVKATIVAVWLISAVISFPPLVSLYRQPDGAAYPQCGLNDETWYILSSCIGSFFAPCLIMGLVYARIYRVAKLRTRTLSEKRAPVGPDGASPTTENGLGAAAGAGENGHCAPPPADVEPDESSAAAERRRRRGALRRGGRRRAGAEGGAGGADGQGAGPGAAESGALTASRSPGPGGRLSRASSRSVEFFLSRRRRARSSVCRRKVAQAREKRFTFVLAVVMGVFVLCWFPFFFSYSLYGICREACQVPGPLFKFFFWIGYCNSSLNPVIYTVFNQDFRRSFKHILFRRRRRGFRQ
Description: as §1

[11] = target: Alpha 2B adrenergic receptor (Homo sapiens (Human), UniProt P18089); test: Off-target binding, α2B; conditions: read-out: Ki at α2B
Chain of Alpha 2B adrenergic receptor (P18089 whole entry): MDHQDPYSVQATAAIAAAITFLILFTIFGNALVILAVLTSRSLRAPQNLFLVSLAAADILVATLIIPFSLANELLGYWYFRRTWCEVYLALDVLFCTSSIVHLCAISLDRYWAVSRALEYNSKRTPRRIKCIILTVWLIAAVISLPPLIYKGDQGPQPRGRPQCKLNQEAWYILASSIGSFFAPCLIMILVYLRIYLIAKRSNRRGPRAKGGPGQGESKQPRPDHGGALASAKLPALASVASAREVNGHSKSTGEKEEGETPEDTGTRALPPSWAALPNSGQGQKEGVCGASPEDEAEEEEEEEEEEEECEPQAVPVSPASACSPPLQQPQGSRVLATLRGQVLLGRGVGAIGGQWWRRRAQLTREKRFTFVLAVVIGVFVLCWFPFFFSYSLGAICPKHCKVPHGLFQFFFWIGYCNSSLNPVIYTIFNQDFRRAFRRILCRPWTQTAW
Description: as §1

Aqueous solubility = assay type: physicochemical
[12] = 3 μmol/kg p.o., mice, ipsilateral hind paw

Chain of h5HT2B (P41595 whole entry): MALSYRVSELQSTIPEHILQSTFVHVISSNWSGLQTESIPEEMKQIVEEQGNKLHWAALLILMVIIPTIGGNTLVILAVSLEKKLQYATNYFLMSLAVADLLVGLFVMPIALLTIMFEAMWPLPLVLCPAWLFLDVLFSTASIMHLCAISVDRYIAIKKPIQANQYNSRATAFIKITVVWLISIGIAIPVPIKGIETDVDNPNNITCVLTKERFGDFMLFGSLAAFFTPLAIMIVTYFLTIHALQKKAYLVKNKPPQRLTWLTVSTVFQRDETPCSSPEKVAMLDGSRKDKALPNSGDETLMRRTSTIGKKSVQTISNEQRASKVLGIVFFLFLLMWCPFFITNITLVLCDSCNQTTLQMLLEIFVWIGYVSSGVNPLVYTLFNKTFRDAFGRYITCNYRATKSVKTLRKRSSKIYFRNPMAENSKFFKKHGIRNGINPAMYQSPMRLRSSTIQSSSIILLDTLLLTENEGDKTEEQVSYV
Chain of hM4 muscarinic receptor (P08173 whole entry): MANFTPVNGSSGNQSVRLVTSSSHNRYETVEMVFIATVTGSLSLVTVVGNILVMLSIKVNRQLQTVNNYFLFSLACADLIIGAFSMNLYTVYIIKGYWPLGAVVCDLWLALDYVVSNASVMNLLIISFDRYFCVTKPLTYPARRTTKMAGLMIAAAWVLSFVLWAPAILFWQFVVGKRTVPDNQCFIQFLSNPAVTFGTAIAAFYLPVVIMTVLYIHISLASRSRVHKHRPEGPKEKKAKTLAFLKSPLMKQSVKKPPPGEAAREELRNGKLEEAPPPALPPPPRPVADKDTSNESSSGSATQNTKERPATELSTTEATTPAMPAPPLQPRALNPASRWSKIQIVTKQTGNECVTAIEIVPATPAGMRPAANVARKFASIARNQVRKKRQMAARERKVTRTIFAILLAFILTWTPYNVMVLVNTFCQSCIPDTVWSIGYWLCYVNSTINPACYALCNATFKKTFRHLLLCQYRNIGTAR

For “(1S,2R,3S,4R,5S)-4-(2-((Ferrocen-yl)ethynyl)-6-(methylamino)-9H-purin-9-yl)-2,3-dihydroxy-N-methylbicyclo[3.1.0]hexane-1-carboxamide [Compound 37]”, the “% Unbound in plasma: Rat” value (% Unbound in plasma, rat) was 6.32%, the Ki (hM4 muscarinic receptor) was < 10 µM and the Ki (h5HT2B) was < 10 µM. For the same substance, the Ki (hM1 muscarinic receptor) was < 10 µM, the Ki (hA3AR) was 0.00268 ± 0.00044 µM and the Ki (5HT2A) was < 10 µM. The Ki (mA3AR) was 0.00546 ± 0.00067 µM, the “Off-target effects compared with MRS5698 and MRS5676” value [1] was “significantly fewer off-target effects” and the “Interactions at other receptors of the off-target panel” value ([1]; 10 μM) was “No significant interactions”. The “Stability in liver microsomes (t1/2, min): Human” value [2] was 3.66 min, the “Stability in liver microsomes (t1/2, min): Mouse” value [3] was 1.98 min and the Ki (hH1 histamine receptor) was < 10 µM. The “A1AR % inhibition, mouse data (m)” value (mA1AR) was 45% ± 2%, the “Stability in simulated fluids (t1/2, min): Gastric” value ([4]; simulated gastric fluid) was 46.5 min and the “Stability in simulated fluids (t1/2, min): Intestinal” value ([4]; simulated intestinal fluid) was 174 min. The “% Unbound in plasma: Human” value [5] was 7.00%, the IC50 (CYP 3A4) was 9.4 µM and the hA1AR % inhibition (hA1AR) was 25 ± 2%. For the same substance, the “% Unbound in plasma: Mouse” value [6] was 4.85%, the Ki (hM3 muscarinic receptor) was < 10 µM and the IC50 [7] was > 9 µM. The Ki (h5HT7) was < 10 µM, the Ki (h5HT6) was < 10 µM and the “A2AAR % inhibition, mouse data (m)” value (mA2AAR) was 4% ± 2%. The “Effect at 3 h (% ± SEM)” value ([8]; 3 μmol/kg p.o., mice, 3 h) was 78 ± 3%, the “Max. effect Emax (% ± SEM)” value [8, 12] was 94 ± 6% and the “Time of peak protection” value [8, 12] was 0.5 to 3 h. The “Efficacy in reversing NP in vivo (of full reversal at peak effect)” value ([8]; CCI model) was ~100%, the “Stability in liver microsomes (t1/2, min): Rat” value [9] was 6.64 min and the Ki [10] was < 10 µM. For the same substance, the Ki [11] was < 10 µM and the “Aq. Solubility (pH 7.4, μg/mL)” value (Aqueous solubility) was 14.5 ± 1.0 μg/mL.
